In patent publication EP0542355A1, “Amorphous (Quinolin-2-ylmethoxy)indoles as leukotriene antagonists” (MERCK FROSST CANADA INC., priority 1991, dated 1993):
Several values for one entry are separate records, joined by “and”; a condition that tells them apart may be missing. Identical values can stand only once. Counter-ions that a name gives are not always drawn. Like-named read-outs stand apart in the source and are kept apart here.

Key:
[1] = Aqueous solubility; format: physicochemical
Experimental: Solubility was measured by stirring […] in water (10 mL) of amorphous L-708 at room temperature. At 48 hrs. 1 mL of the suspension was drawn and centrifuged. The supernatant was diluted and content of amorphous L-708 was measured by both U.V. spectrophotometry and by HPLC. This gave a concentration of 55 mg/mL.

[2] = Bioavailability; format: in vivo
[3] = Stability of the solid on storage, followed by water solubility; format: physicochemical; conditions: solid stored three months at 30°C and 60°C at ambient humidity and at 30°C/79% relative humidity
Experimental: (§1) No change in water solubility has been observed even when stored for three months at 30°C and 60°C at ambient humidity and at 30°C/79% relative humidity.

[4] = Stability of saturated aqueous solutions against precipitation of the crystalline form; format: physicochemical; conditions: do not readily precipitate the crystalline form even when seeded with the crystalline allotrope
[5] = Stability to chemical decomposition; format: physicochemical; conditions: in the solid form and in aqueous solution
Experimental: as §1

solubility ([1]; water, crystalline sodium salt, read-out: aqueous solubility) [mg/mL]	oral bioavailability ([2]; oral)	solubility ([1]; de-ionized water, in de-ionized water at 25°C, read-out: solubility) [mg/mL]	solubility at 48 h ([1]; water, 100 mg/mL stirred in water (10 mL) at room temperature, 48 hrs, U.V. spectrophotometry and HPLC, read-out: Solubility (concentration in supernatant)) [mg/mL]	solubility ([1]; water, not tested higher, read-out: Solubility in water)	change in water solubility on storage [3]	stability of saturated aqueous solutions [4]	stability to chemical decomposition [5]	Compound	bioavailability ([2]; compared with L-708 Na⁺ salt)
0.005 to 0.03	low oral bioavailability							CC(C)(C)Sc1c(CC(C)(C)C(=O)O)n(Cc2ccc(Cl)cc2)c2ccc(OCc3ccc4ccccc4n3)cc12 [L-708 Na⁺ salt, Crystalline 3-[N-(p-chlorobenzyl)-3-(t-butylthio)-5-(quinolin-2-ylmethoxy)indol-2-yl]-2.2-dimethylpropanoic acid, sodium salt, reference compound]	
		55	55	≥ 3000 µg/mL and ≥ 5000 µM	No change	highly stable	highly stable to chemical decomposition	CC(C)(C)Sc1c(CC(C)(C)C(=O)O)n(Cc2ccc(Cl)cc2)c2ccc(OCc3ccc4ccccc4n3)cc12 [amorphous L-708, Amorphous 3-[N-(p-chlorobenzyl)-3-(t-butylthio)-5-(quinolin-2-ylmethoxy)indol-2-yl]-2,2-dimethylpropanoic acid, sodium salt]	much more bioavailable than L-708 Na⁺ salt
